Test: Body weight of animals in the in vivo efficacy assay
Settings: for Body weight of the mice compared to the control group (tolerance): 10 days of continuous administration, 10 mg/kg and 25 mg/kg
Description: Dosage according to mouse body weight: 10 μL/g. If the body weight decreases by more than 20%, the dosing regimen was adjusted accordingly.
The formulation and any modifications of this assay protocol were evaluated and approved by the Laboratory Animal Welfare Ethics Committee of the testing institution. The health status and death of animals were checked every day. Routine inspections included tumor growth, activity, diet, body weight, eyes, hair and other abnormal behaviors of animals. Tumor volume and body weight were measured three times a week (Monday, Wednesday and Friday). The tumor volume was measured with a vernier caliper, and the formula was TV=0.5 a×b^2, where a is the long diameter of a tumor and b is the short diameter of a tumor.
The body weight of assay animals was used as a reference index to indirectly determine drug toxicity.

[1] = 10 mg/kg/bid, day 0 after administration
[2] = 10 mg/kg/bid, day 3 after administration
[3] = 10 mg/kg/bid, day 5 after administration
[4] = 10 mg/kg/bid, day 7 after administration
[5] = 10 mg/kg/bid, day 10 after administration
[6] = 25 mg/kg/bid, day 0 after administration
[7] = 25 mg/kg/bid, day 3 after administration
[8] = 25 mg/kg/bid, day 5 after administration
[9] = 25 mg/kg/bid, day 7 after administration
[10] = 25 mg/kg/bid, day 10 after administration

Row | SMILES | Average body weight [1] | Average body weight [2] | Average body weight [3] | Average body weight [4] | Average body weight [5] | Average body weight [6] | Average body weight [7] | Average body weight [8] | Average body weight [9] | Average body weight [10] | Body weight of the mice compared to the control group (tolerance)
1 | Cc1cc2cc(n1)-c1cnn(C)c1OC[C@H]1CC[C@H](C1)CN1/C(=N/C2=O)Nc2ccc(N=S(C)(C)=O)cc21 (single isomer, unassigned) [WX-027A] | 21.7 g | 21.9 g | 22.1 g | 22.1 g | 22.2 g | 21.0 g | 21.5 g | 21.6 g | 21.4 g | 21.8 g | no significant difference
2 | Cc1cc2cc(n1)-c1cnn(C)c1OCCC[C@@H](C)CN1/C(=N/C2=O)Nc2ccc(N=S(C)(C)=O)c(Cl)c21 [WX-019] | 20.6 g | 20.7 g | 20.8 g | 20.7 g | 20.9 g | 22.5 g | 23.4 g | 23.0 g | 22.8 g | 23.3 g | no significant difference
